Laboratory results taken from patent US20250129009A1, “Compound and Method for Identifying Impurities Included Therein” (LG CHEM, LTD., priority 2022, published 2025).

Assay: Measurement of turbidity by UV/Vis spectroscopy (Method 1)
Type: physicochemical
Conditions: 20 wt % aqueous solution; for Absorbance: light at 290 nm, 1 mm cuvette, DI water reference
Method: A 20 wt % aqueous solution of the compound is analyzed by UV/Vis spectroscopy to measure the absorbance Abs to light at a wavelength of 290 nm, and the turbidity Tb is derived from the measured absorbance Abs by the following Equation 1.
A 20 wt % aqueous solution of the compound is analyzed by UV/Vis spectroscopy to measure the absorbance Abs to light at a wavelength of 290 nm, and a turbidity Tb is derived from the measured absorbance Abs by the following Equation 1.
The absorbance of light at a wavelength of 290 nm is confirmed by analyzing 5 types of turbidity standard solutions (0, 1, 10, 100, and 1000 NTU, respectively) by UV/Vis spectroscopy (using Agilent 8453, 200 to 1100 nm, resolution 2 nm, 1 mm cuvette). In this case, an empty cuvette cell is used as a reference for measurement. A calibration curve (Equation 1) is derived from the absorbance according to the 0 NTU to 1,000 NTU interval. (NTU: Nephelometric Turbidity Unit, water quality standard 1 NTU)
UV/Vis was measured for Samples 1 to 7 prepared in Preparation Example B above using Method 1 of the present disclosure, and the results are illustrated in FIG. 1. Further, values obtained by converting the measured absorbance (Abs) into turbidity using the following Equation 1 are shown in the following Table 1.
500 mg of each of Samples 1 to 7 were put into a vial, a 20 wt % aqueous solution was prepared using distilled water (DI water), and then UV/Vis spectroscopy (using Agilent 8453, 200 to 1100 nm, resolution 2 nm, 1 mm cuvette) was analyzed to confirm the absorbance of light at a wavelength of 290 nm. In this case, DI water was used as a reference for measurement.
The absorbance of light at a wavelength of 290 nm was confirmed by analyzing 5 types of turbidity standard solutions (0, 1, 10, 100, and 1000 NTU, respectively) by UV/Vis spectroscopy (using Agilent 8453, 200 to 1100 nm, resolution 2 nm, 1 mm cuvette). In this case, an empty cuvette cell was used as a reference for measurement.
A calibration curve (Equation 1) was derived from the absorbance according to the 0 NTU to 1,000 NTU interval. (NTU: Nephelometric Turbidity Unit, water quality standard 1 NTU)
Turbidity was derived by introducing the absorbance of Samples 1 to 7 confirmed in 1) above into Equation 1.

## C=CC(=O)OCC[N+](CCCC)(CCCC)CCCCCCCCCCCC [Sample 2]
  Absorbance: 0.1615

## C=CC(=O)OCC[N+](CCCC)(CCCC)CCCCCCCCCCCC [Sample 3]
  Absorbance: 0.3459

## C=CC(=O)OCC[N+](CCCC)(CCCC)CCCCCCCCCCCC [Sample 5]
  Absorbance: 0.2796
Converted from absorbance at 290 nm by Equation 1 (calibration 0 to 1,000 NTU standards)
  Turbidity: 74
